According to US11419876B2, “Mirtazapine as a pre-shipping inhibitor of bovine respiratory disease” (Iowa State University Research Foundation, Inc., priority 2019, dated 2022):

Tested on: BRD
Test: Pre-shipment mirtazapine treatment for BRD prevention at the feedlot
Type: in vivo, ranch heifer calves
Method: An initial study was performed to confirm BRD prevention at the feedlot using a pre-shipment treatment comprising mirtazapine. A total of 24 ranch heifer calves that were recently weaned (mixed breeds, approximately 350 lbs, 6 months old) were randomly assigned to two different treatment groups. One group was fed mirtazapine in a standard starter feed at 5 mg/kg/day as a pre-shipment treatment. The treatment dosage was extrapolated from feline dosing. After one week, calves were shipped from southern Missouri to Iowa. For the next […], calves were monitored for BRD which was ascribed to any animal showing respiratory signs (i.e. coughing, runny nose or eyes, labored or rapid breathing) plus a rectal temperature >104° F. BRD(+) calves were then treated with florfenicol+flunixin. Calves requiring a second treatment received ceftiofur plus tulathromycin, while the third treatment consisted of enrofloxacin, if needed. At the end of the study calves were sold as seedstock and were kept out of the food chain.
The efficacy of the mirtazapine as a pre-shipment treatment for preventing BRD was assessed by various clinical parameters, as shown in Table 1 and FIG. 1.
The % morbidity equals the % of calves that developed BRD in the first six weeks. The % mortality equals the percent of BRD(+) calves that died of the disease. The % retreats equals the % of BRD(+) calves that required >2 treatments for BRD once developed. The data are compared to Control calves that were not fed mirtazapine prior to shipping to a feedlot (“None”).

[1] = fed in starter feed at 5 mg/kg/day for one week pre-shipment, BRD(+) calves

CN1CCN2c3ncccc3Cc3ccccc3C2C1 (stereo not drawn) [Mirtazapine, 1,2,3,4,10,14b-hexahydro-2-methyl-pyrazino[2,1-a]pyrido[2,3-c] benzazepine]
% Morbidity (% of calves that developed BRD) (fed in starter feed at 5 mg/kg/day for one week pre-shipment, % of calves that developed BRD in the first six weeks): 42%
% Mortality (percent of BRD(+) calves that died of the disease) [1]: 0%
% Retreats (% of BRD(+) calves that required >2 treatments for BRD) [1]: 11%
Avg. days to onset BRD (fed in starter feed at 5 mg/kg/day for one week pre-shipment, after shipping to feedlot): 7.3 days
Avg. Rectal Temp at BRD (fed in starter feed at 5 mg/kg/day for one week pre-shipment, at clinical presentation with BRD): 104.2 degrees F.
Effect on morbidity, mortality and severity of BRD (in words) (fed to calves for one week prior to shipping, versus control calves not fed mirtazapine): reduces the morbidity, mortality, and severity
